Test system: advanced clear cell carcinoma of the kidney
Assay: Phase 2 study of AMG 386 plus sorafenib: progression free survival by baseline serum PLGF above vs below the median (28 pg/mL)
Assay type: in vivo, human
Settings: sorafenib only, 400 mg PO BID (placebo AMG 386), FIG. 4
Experimental: FIGS. 1-4 are Kaplan-Meier plots showing progression free survival differences between subjects with patient PLGF concentrations above and below the median PLGF concentration parameter (28 pg/mL). 123 patients total with 43 patients administered AMG 386 at 10 mg/kg, 39 patients at 3 mg/kg, and 41 patients at 0 mg/kg. All patients were also dosed with 400 mg sorafenib orally, twice a day. […]
The number of patients to be enrolled was approximately 150. […] The primary outcome measured was PFS while the secondary outcome included objective response rate, duration of response, and change in continuous measures of tumor burden.
Renal cancer patient's circulating levels of protein placental growth factor (PLGF) was analyzed along with a number of other analytes to determine if it was predictive of how well they will respond after treatment with AMG 386 and sorafenib. […] The baseline patient PLGF concentration was analyzed to determine if it was informative of how well the patient would respond to the treatment regimens.
The patients PLGF concentrations were determined and tested for statistical association with progression free survival (PFS) time. […] Predictive significance was determined with a Cox proportional hazards model of PFS with the factors PLGF, cohort, and the interaction between PLGF and cohort. […]

Question: For CNC(=O)c1cc(Oc2ccc(NC(=O)Nc3ccc(Cl)c(C(F)(F)F)c3)cc2)ccn1 [sorafenib], which “Cox proportional hazard ratio (HR) of progression free survival, patient PLGF above vs below median” value (41 patients (23 above, 18 below)) is on record?
Answer: Its value is 0.83.

Question: And the “difference in median survival, patient PLGF above vs below median” value (41 patients)?
Answer: The value was 1 days.
